{"source": "patent US20190091494A1", "about": "“PEPTIDES FOR HAIR GROWTH” (Clinical Stem Cells Pty Ltd, priority 2016, published 2019)", "key": {"active hair follicles": {"test_system": "active hair follicles", "conditions": "topically applied to rodent skin; cited from earlier work"}, "inactive hair follicles": {"test_system": "inactive hair follicles", "experiment": "Inventor's observation: activation of inactive hair follicles", "conditions": "in vivo"}, "hair follicles [1]": {"test_system": "hair follicles", "conditions": "active hair follicles that entered catagen; US 2011/0281802; cited from earlier work"}, "hair follicles [2]": {"test_system": "hair follicles", "experiment": "Clinical trial using topical zinc thymulin: number of active hair follicles in a set scalp area", "format": "in vivo, Human", "method": "The area near the marker affected by hair loss was photographed using a Samsung Galaxy Note 4 camera with settings F2.2, focal length 31 mm, LED flash and the number of active hair follicles in a set area were quantified.\nThe aqueous spray formulation prepared in Example 2 was administered topically to the scalp of the trial subjects twice daily to the hair loss region(s) of the scalp. The formulation used for subjects 1, 2 and 3 contained 0.00005% LKKTETQ peptide (molecular weight 846.48).\nAt 16 weeks for subject 1 and 12 weeks for subjects 2, 3 and 4, the number of active hair follicles in the set area was quantified again. Multiple set areas of hair loss were evaluated for trial subjects 1, 2 and 3. These areas are designated “a” and “b” in Table 2 and Table 3."}, "[3]": {"test_system": "adult subjects with a diagnosis of AGA", "experiment": "Further clinical trial, numbered visual analog scale (VAS) global hair assessment", "format": "in vivo, human", "conditions": "for VAS after treatment: scale 0-10, one value per subject 1-18, 0.0005% spray twice daily, 4-10 months", "description": "(§1) Eighteen consecutive adult subjects were recruited, 17 males and 1 female, age range 35-90 years (mean 55.4, SD 13.3) with a diagnosis of AGA, Norwood classification 2-7, and hair loss duration range of 3-40 years (mean 15.8, SD 9.6). The trial duration for each subject ranged from 4-10 months. The test compound ZT was synthesized by standard Fmoc peptide protocols and administered in water based topical spray to the scalp. Baseline and after treatment images for hair growth were graded by two blinded assessors using two validated scales: 1. numerical visual analog scale (VAS) for global assessment 2. hair growth index (HGI) of images under higher magnification for percentage changes of vellus, intermediate and terminal hair.\n(§2) Male and female adult subjects with a diagnosis of AGA were invited to participate in the study. Each subject provided written informed consent except the subject who gave verbal consent as they were unable to provide written consent due to arthritis of the hand. The study was conducted in compliance with the Declaration of Helsinki, International Conference on Harmonization Good Clinical Practice guidelines. Eighteen consecutive adult subjects were recruited (17 males and 1 […]) with an age range 35-90 years (mean 55.4, SD 13.3) with a diagnosis of AGA Norwood-Hamilton classification 2-7, and with a hair loss history ranging from 3-40 years (mean 15.8, SD 9.6). Entry time points of the volunteers occurred over 6 months with the trial completed at the same endpoint resulting in duration of treatment for subjects in the trial ranging from 4-10 months.\n(§3) The product given to subjects was a 100 ml spray bottle containing 0.0005% ZT as the active test agent. Subjects were instructed to spray 1-2 ml of solution, twice daily, and rub into the scalp. The spray bottle solution was to be kept away from direct sunlight and heat. Subjects were resupplied with fresh solutions every 6-8 weeks during the trial.\n(§4) Images were captured on a Samsung Galaxy Note 4 phone in high resolution (16 MB image) with flash, F 2.2 and focal length 31 mm. For assessment, baseline and after treatment images were de-identified, paired and randomly allocated with respect to left/right sides. Images were presented for analysis to assessors in Powerpoint format files on a 55 inch high resolution television screen. All images and original assessor scorecards were archived in PDF format for external reviewer confirmation.\n1. Numbered visual analog scale (VAS) where the assessor gives a value between 0-10 of the image (0=total absence of hair, 10=full abundant hair) (Price, 2008).\n(§5) Assessment was graded by two independent assessors in a single blind manner. Assessors underwent three training sessions over two weeks prior to the final evaluation."}, "[4]": {"test_system": "adult subjects with a diagnosis of AGA", "experiment": "Further clinical trial, Hair Growth Index (HGI) of magnified images", "format": "in vivo, human", "conditions": "for HGI adjusted score A (absent) after: raw % multiplied by 0; for HGI raw score % A (absent) after / HGI raw score % I (intermediate) after / HGI raw score % T (terminal) after / HGI raw score % V (vellus) after: per subject, after trial completion", "description": "as §1, §2, §3, §4\n2. Hair Growth Index (HGI) that is a more in-depth scale of analysis where higher magnification of images can identify the four types of hair regrowth that are designated as absent, vellus, intermediate or terminal (Bernado, 2003). For each image these four growth stages are given percentage values that added together give a raw score total of 100%. Each percentage value for absent, vellus, intermediate, and terminal are multiplied by 0,1,2,3 respectively to yield a final adjusted score ranging from a possible minimum score of 0 (total absence of hair) to a maximum score of 300 (full terminal hair). Scores were pooled for paired t-test, and P<0.05 was established for significance.\nas §5"}, "[5]": {"test_system": "adult subjects with a diagnosis of AGA", "experiment": "Further clinical trial, safety: side effects and drug interaction", "format": "in vivo, human", "conditions": "listed as ZT", "description": "as §1, §2, §3"}, "scalp of subject #17": {"test_system": "scalp of subject #17", "experiment": "Fluorescence spectroscopy procedure of the scalp", "format": "in vivo, human", "conditions": "subject #17 (30 year hair loss); 6 pre-existing terminal hairs under visible white LED light", "description": "To confirm this effect subject #17 (30 year hair loss) underwent a fluorescence spectroscopy procedure of the scalp. […] Supporting evidence was seen when comparing the assessor pooled responses of ‘total absent hair’ where 65% (13/20) of subjects improved."}, "[6]": {"conditions": "all 7 subject areas, 12-16 weeks"}, "[7]": {"conditions": "subject 4, 12 weeks, spray without LKKTETQ peptide"}}, "note": "Several values for one entry are separate records, joined by “and”; a condition that tells them apart may be missing. Equal entries are not always repeated. Entries after “also recorded” stand apart in the source; their conditions may differ. Where no end group is shown, it is not given here. [ ]: non-standard residue; d: D form. pGlu = O=C1CC[C@@H](C(=O)O)N1", "data": [{"substance": "LKKTETQ [leucine-leucine-lysine-threonine-glutamic acid-threonine-glutamine, added at 0.00005% (amidated & acetylated) to the spray of subjects 1-3]", "values": [{"measurement": "hair growth", "setting": "active hair follicles", "value": "promotes hair growth from existing active hair follicles"}]}, {"substance": "pyrGlu-Ala-Lys-Ser-Gln-Gly-Gly-Ser-Asn ([pGlu]AKSQGGSN) [thymulin, nonapeptide produced by the thymus gland, CAS 63958-90-7, reference compound]", "values": [{"measurement": "activation of inactive hair follicles", "setting": "inactive hair follicles", "value": "does not significantly activate inactive hair follicles"}, {"measurement": "hair shaft formation", "setting": "hair follicles [1]", "value": "inhibit hair shaft formation"}]}, {"substance": "zinc thymulin: zinc complex of amidated and acetylated thymulin H3CC(O)-Pyr-Glu-Ala-Lys-Ser-Gln-Gly-Gly-Ser-Asn-NH2; tested as 0.0005% water based topical spray (Ac-[pGlu]AKSQGGSN-NH2; also: zinc complex)", "values": [{"measurement": "Percentage increase in active hair follicles, Average increase", "setting": "hair follicles [2]; [6]", "value": 80, "unit": "%"}, {"measurement": "Percentage increase in active hair follicles, Range", "setting": "hair follicles [2]; [6]", "value": "6-200%"}, {"measurement": "Number of active hair follicles after treatment per cm^2", "setting": "hair follicles [2]; subject 1 (areas a, b), 16 weeks, spray with LKKTETQ peptide", "value": "21 per cm^2 and 24 per cm^2"}, {"measurement": "Number of active hair follicles after treatment", "setting": "hair follicles [2]; subject 1 (areas a, b), 16 weeks, twice daily topical 0.0005% spray also containing 0.00005% LKKTETQ peptide", "value": "36 and 48"}, {"measurement": "Number of active hair follicles after treatment per cm^2", "setting": "hair follicles [2]; [7]", "value": 38, "unit": "per cm^2"}, {"measurement": "Percentage increase in active hair follicles", "setting": "hair follicles [2]; [7]", "value": 135, "unit": "%"}, {"measurement": "Number of active hair follicles after treatment", "setting": "hair follicles [2]; subject 4, 12 weeks, twice daily topical 0.0005% spray without LKKTETQ peptide", "value": 40}, {"measurement": "VAS hair assessment improvement", "setting": "[3]; 11 subjects who completed at least 6 months of treatment, listed as ZT", "value": "significant growth"}, {"measurement": "VAS after treatment", "setting": "[3]; Assessor #1", "value": "6 (3×) and 8 (10×) and 9 (3×) and 7 (2×)"}, {"measurement": "VAS after treatment", "setting": "[3]; Assessor #2", "value": "6 (5×) and 8 (5×) and 7 (3×) and 4 and 9 (2×) and 5 (2×)"}, {"measurement": "VAS hair growth", "setting": "[3]; total group (18 subjects) at the end of the trial", "value": "no significant growth"}, {"measurement": "assessor pooled responses of 'total absent hair' improved", "setting": "[4]; 13/20 pooled responses", "value": 65, "unit": "%"}, {"measurement": "HGI adjusted score A (absent) after", "setting": "[4]; Assessor #1", "value": 0}, {"measurement": "HGI adjusted score A (absent) after", "setting": "[4]; Assessor #2", "value": 0}, {"measurement": "HGI adjusted score I (intermediate) after", "setting": "[4]; Assessor #2, raw % multiplied by 2, listed as ZT", "value": "60 and 40"}, {"measurement": "average increase of intermediate type hairs", "setting": "[4]; HGI assessment, at 6 months", "value": 23, "unit": "%"}, {"measurement": "average increase of vellus type hairs", "setting": "[4]; HGI assessment, at 6 months", "value": 32, "unit": "%"}, {"measurement": "number of newly observed intermediate hairs in previous absent hair regions", "setting": "[4]; HGI assessment, listed as ZT", "value": "significant increase; also recorded: highly significant increased number"}, {"measurement": "HGI raw score % A (absent) after", "setting": "[4]; assessor A#1, listed as ZT", "value": "50% (3×) and 40% (4×) and 15% and 20% (2×)"}, {"measurement": "HGI raw score % I (intermediate) after", "setting": "[4]; assessor A#1, listed as ZT", "value": "20% (2×) and 15% and 10% (2×) and 25% (5×)"}, {"measurement": "HGI raw score % T (terminal) after", "setting": "[4]; assessor A#1, listed as ZT", "value": "20% (2×) and 30% (3×) and 15% and 10% (2×) and 55% and 60%"}, {"measurement": "HGI raw score % V (vellus) after", "setting": "[4]; assessor A#1, listed as ZT", "value": "10% (3×) and 20% (2×) and 25% (3×) and 15% and 5%"}, {"measurement": "HGI raw score % A (absent) after", "setting": "[4]; assessor A#2, listed as ZT", "value": "20% and 30% (3×) and 10% (3×) and 40% (2×) and 50%"}, {"measurement": "HGI raw score % I (intermediate) after", "setting": "[4]; assessor A#2, listed as ZT", "value": "30% (6×) and 20% (4×)"}, {"measurement": "HGI raw score % T (terminal) after", "setting": "[4]; assessor A#2, listed as ZT", "value": "20% (4×) and 30% (2×) and 40% and 10% (2×) and 60%"}, {"measurement": "HGI raw score % V (vellus) after", "setting": "[4]; assessor A#2, listed as ZT", "value": "30% (3×) and 20% (3×) and 0% and 40% and 10% (2×)"}, {"measurement": "Melanogenesis", "setting": "[4]; higher magnification images, several (older) subjects, listed as ZT", "value": "Melanogenesis was observed in several subjects; also recorded: clearly observed"}, {"measurement": "adverse systemic effects or local side effects (redness, scalp irritation)", "setting": "[5]; 18 subjects, topical 0.0005% spray, total of 3,300 treatment days", "value": "no adverse systemic effects or local side effects of redness or scalp irritation; also recorded: no redness, scalp irritation or deterioration of hair color, quality or quantity"}, {"measurement": "side effects reported in the entire study", "setting": "[5]; 18 test subjects, total of 111 months (~3,300 days), attributed to a non-active constituent (citric acid buffer)", "value": "Only one side effect; also recorded: only one side effect from a non-active constituent"}, {"measurement": "drug interaction with ZT", "setting": "[5]; three subjects concurrently using minoxidil (N=2) and minoxidil/finasteride (N=1)", "value": "did not report any drug interaction; also recorded: no observable drug interaction"}, {"measurement": "additional developing vellus hairs revealed by spectroscopy", "setting": "scalp of subject #17", "value": 59}, {"measurement": "activation of inactive hair follicles", "setting": "inactive hair follicles", "value": "effective"}]}]}
